Reference: patent publication US20110152243A1, “NOVEL THIENOPYRROLE COMPOUNDS” (ABBOTT LABORATORIES, priority 2009, published 2011)

Target: PKCθ (Homo sapiens, UniProt Q04759)
Assay: PKCθ enzyme data at 1 mM ATP
Type: biochemical

Sequence of PKCθ (Q04759 whole entry): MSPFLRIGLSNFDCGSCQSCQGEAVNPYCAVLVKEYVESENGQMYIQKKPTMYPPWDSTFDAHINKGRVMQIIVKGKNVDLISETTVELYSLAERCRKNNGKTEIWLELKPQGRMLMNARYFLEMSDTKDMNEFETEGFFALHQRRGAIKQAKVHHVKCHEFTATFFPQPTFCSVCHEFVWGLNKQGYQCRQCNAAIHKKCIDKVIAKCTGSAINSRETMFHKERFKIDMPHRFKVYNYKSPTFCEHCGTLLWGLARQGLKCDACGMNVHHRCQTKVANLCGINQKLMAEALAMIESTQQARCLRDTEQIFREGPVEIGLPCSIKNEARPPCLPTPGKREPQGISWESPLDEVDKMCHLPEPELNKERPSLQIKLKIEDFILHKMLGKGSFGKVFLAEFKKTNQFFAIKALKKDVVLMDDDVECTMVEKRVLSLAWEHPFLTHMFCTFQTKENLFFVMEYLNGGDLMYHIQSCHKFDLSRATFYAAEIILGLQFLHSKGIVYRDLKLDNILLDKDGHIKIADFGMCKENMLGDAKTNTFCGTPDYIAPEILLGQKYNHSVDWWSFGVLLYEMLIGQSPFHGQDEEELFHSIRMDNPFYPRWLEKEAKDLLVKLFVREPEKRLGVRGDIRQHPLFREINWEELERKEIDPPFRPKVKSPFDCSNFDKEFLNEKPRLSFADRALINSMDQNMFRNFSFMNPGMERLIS

Row | SMILES | IC50
1 | O=C1NC(=O)C(c2nn(C3CCNCC3)c3ccccc23)=C1c1c[nH]c2sccc12 [G.1.11] | 100 to 500 nM
2 | CN1CCN(c2nc(C3=C(c4c[nH]c5sccc45)C(=O)NC3=O)c3cc(F)ccc3n2)CC1 [F.4.15] | < 100 nM
3 | CN1CCC(Cn2cc(C3=C(c4c[nH]c5ccccc45)C(=O)NC3=O)c3ccsc32)CC1 [F.5.1] | < 100 nM
4 | CC1(N)CCN(c2nc(C3=C(c4c[nH]c5sccc45)C(=O)NC3=O)c3ccccc3n2)CC1 [G.1.10] | < 100 nM
5 | Cc1nccn1CC1CCN(c2nc(C3=C(c4c[nH]c5sccc45)C(=O)NC3=O)c3ccccc3n2)CC1 [E.1.3] | 100 to 500 nM
6 | CN(C)[C@H]1CC[C@@H](n2nc(C3=C(c4c[nH]c5sccc45)C(=O)NC3=O)c3ccccc32)CC1 [F.4.5] | < 100 nM
7 | Cn1cnc2c1CCN(c1nc(C3=C(c4c[nH]c5sccc45)C(=O)NC3=O)c3ccccc3n1)C2 [E.1.54] | < 100 nM
8 | O=C1NC(=O)C(c2c[nH]c3sccc23)=C1c1nc(N2CC[C@@H]3NCC[C@@H]3C2)nc2ccccc12 (relative stereo) [G.1.19] | < 100 nM
9 | O=C1NC(=O)C(c2c[nH]c3sccc23)=C1c1nc(N2CCC(CN3CCCC3)CC2)nc2ccccc12 [E.1.11] | 100 to 500 nM
10 | O=C1NC(=O)C(c2c[nH]c3ccsc23)=C1c1nc(N2CCN3CCC[C@H]3C2)nc2ccccc12 [E.2.4] | < 100 nM
11 | CC(C)N1CCN(c2nc(C3=C(c4c[nH]c5sccc45)C(=O)NC3=O)c3ccccc3n2)CC1 [E.1.21] | < 100 nM
12 | Cc1cc2c(C3=C(c4nc(N5CCN(C)CC5)nc5ccccc45)C(=O)NC3=O)c[nH]c2s1 [F.1.3] | 100 to 500 nM
13 | CN(C)CCCn1nc(C2=C(c3c[nH]c4sccc34)C(=O)NC2=O)c2ccccc21 [F.4.29] | 100 to 500 nM
14 | CN(C)CCCCn1nc(C2=C(c3c[nH]c4sccc34)C(=O)NC2=O)c2ccccc21 [F.4.27] | 500 to 1000 nM
15 | O=C1NC(=O)C(c2c[nH]c3ccsc23)=C1c1nc(NCC2CCCCN2)nc2ccccc12 (centres unmarked) [G.1.9] | 500 to 1000 nM
16 | CN(C)[C@H]1CCN(c2nc(C3=C(c4c[nH]c5sccc45)C(=O)NC3=O)c3ccccc3n2)C[C@H]1F [E.1.33] | 100 to 500 nM
17 | NC(=O)C1CCN(c2nc(C3=C(c4c[nH]c5sccc45)C(=O)NC3=O)c3ccccc3n2)CC1 [E.1.14] | 500 to 1000 nM
18 | O=C1NC(=O)C(c2c[nH]c3sccc23)=C1c1nc(N2CCC(n3ccnc3)C2)nc2ccccc12 (centres unmarked) [E.1.23] | 500 to 1000 nM
19 | CN1CCC(Cc2cn(C3=C(c4c[nH]c5sccc45)C(=O)NC3=O)c3ccccc23)CC1 [F.4.37] | < 100 nM
20 | O=C1NC(=O)C(c2c3n(c4ccccc24)CCC(CO)C3)=C1c1c[nH]c2sccc12 (centres unmarked) [Example #1, 3-(8-(Hydroxymethyl)-6,7,8,9-tetrahydropyrido[1,2-a]indol-10-yl)-4-(6H-thieno[2,3-b]pyrrol-4-yl)-1H-pyrrole-2,5-dione] | 100 to 500 nM
21 | CN1CCC(Cc2nc(C3=C(c4c[nH]c5sccc45)C(=O)NC3=O)c3ccccn23)CC1 [F.4.33] | 500 to 1000 nM
22 | CN1CCN(c2nc(C3=C(c4c[nH]c5ccsc45)C(=O)NC3=O)c3ccc(F)cc3n2)CC1 [F.3.5] | < 100 nM
23 | O=C1NC(=O)C(c2c[nH]c3sccc23)=C1c1nc(N2CCn3c(cnc3CO)C2)nc2ccccc12 [E.1.48] | < 100 nM
24 | CC(C1CCN(c2nc(C3=C(c4c[nH]c5sccc45)C(=O)NC3=O)c3ccccc3n2)CC1)N1CCOCC1 (centres unmarked) [E.1.2] | 100 to 500 nM
25 | O=C1NC(=O)C(c2c[nH]c3sccc23)=C1c1nc(N2CC[C@H](N3CCCC3)[C@@H](F)C2)nc2ccccc12 [E.1.30] | < 100 nM
26 | Cc1noc(C2CCN(c3nc(C4=C(c5c[nH]c6sccc56)C(=O)NC4=O)c4ccccc4n3)CC2)n1 [E.1.10] | 500 to 1000 nM
27 | O=C1NC(=O)C(c2c[nH]c3ccsc23)=C1c1nc(N2CCC(N3CCCCC3)CC2)nc2ccccc12 [E.2.2] | < 100 nM

Row | SMILES | IC50
28 | CNCC1CCN(c2nc(C3=C(c4c[nH]c5sccc45)C(=O)NC3=O)c3ccccc3n2)CC1 [G.1.15] | 100 to 500 nM
29 | CN1CC2CCN(c3nc(C4=C(c5c[nH]c6sccc56)C(=O)NC4=O)c4ccccc4n3)CC2C1 (centres unmarked) [E.1.39] | < 100 nM
30 | O=C1NC(=O)C(c2c[nH]c3sccc23)=C1c1nc(N2CCC3(CC2)CNC3)nc2ccccc12 [G.1.13] | 100 to 500 nM
31 | O=C1NC(=O)C(c2c[nH]c3sccc23)=C1c1nc(N2CCN3CCCC3C2)nc2ccccc12 (centres unmarked) [F.2.1] | < 100 nM
32 | Cc1cccc2c(C3=C(c4c[nH]c5sccc45)C(=O)NC3=O)nc(N3CCN(C)CC3)nc12 [F.4.32] | 500 to 1000 nM
33 | O=C1NC(=O)C(c2c[nH]c3sccc23)=C1c1nc(N2CCN(CCO)CC2)nc2ccccc12 [E.1.19] | < 100 nM
34 | CC(O)c1ncc2n1CCN(c1nc(C3=C(c4c[nH]c5sccc45)C(=O)NC3=O)c3ccccc3n1)C2 (centres unmarked) [E.1.52] | < 100 nM
35 | CN1CCN(c2nc(C3=C(c4c[nH]c5sccc45)C(=O)NC3=O)c3ccccc3n2)CC1 [F.1.1, 3-(2-(4-Methylpiperazin-1-yl)quinazolin-4-yl)-4-(6H-thieno[2,3-b]pyrrol-4-yl)-1H-pyrrole-2,5-dione] | < 100 nM
36 | O=C1NC(=O)C(c2c[nH]c3sccc23)=C1c1nc(N2CCC(CN3CCOCC3)CC2)nc2ccccc12 [E.1.16] | 100 to 500 nM
37 | O=C1NC(=O)C(c2c[nH]c3sccc23)=C1c1nc(N2CCn3ncnc3C2)nc2ccccc12 [E.1.38] | 100 to 500 nM
38 | O=C1NC(=O)C(c2c[nH]c3sccc23)=C1c1nc(N2CCN3CCC[C@H]3C2)nc2sccc12 [E.3.1] | < 100 nM
39 | O=C1NC(=O)C(c2c[nH]c3ccsc23)=C1c1nc(N2CC3CNCC3C2)nc2ccccc12 (centres unmarked) [G.1.3] | 500 to 1000 nM
40 | CN1CC[C@H](Cn2nc(C3=C(c4c[nH]c5sccc45)C(=O)NC3=O)c3ccccc32)[C@H](F)C1 (relative stereo) [F.4.4] | < 100 nM
41 | O=C1NC(=O)C(c2c[nH]c3ccsc23)=C1c1nc(N2CCn3cnnc3C2)nc2ccccc12 [E.2.8] | 100 to 500 nM
42 | COCCN1CCC(Cn2nc(C3=C(c4c[nH]c5sccc45)C(=O)NC3=O)c3ccccc32)CC1 [F.4.21] | 100 to 500 nM
43 | O=C1NC(=O)C(c2c[nH]c3sccc23)=C1c1nc(N2CCc3nc[nH]c3C2)nc2ccccc12 [E.1.27] | < 100 nM
44 | O=C1NC(=O)C(c2nn(CC3CCNCC3)c3ccccc23)=C1c1c[nH]c2sccc12 [G.1.12] | < 100 nM
45 | CN1CCN(c2nc(C3=C(c4c[nH]c5sccc45)C(=O)NC3=O)c3sccc3n2)CC1 [F.4.9] | < 100 nM
46 | O=C1NC(=O)C(c2c[nH]c3ccsc23)=C1c1nc(N2CCC(N3CCCC3)CC2)nc2ccccc12 [E.2.6] | < 100 nM
47 | CN1CCN(c2nc(C3=C(c4c[nH]c5sccc45)C(=O)NC3=O)c3ccncc3n2)CC1 [F.4.24] | < 100 nM
48 | CN1CCN(c2nc(C3=C(c4c[nH]c5ccsc45)C(=O)NC3=O)c3ccsc3n2)CC1 [F.3.4] | < 100 nM
49 | CN1CCN(c2nc(C3=C(c4c[nH]c5sccc45)C(=O)NC3=O)c3cccn3n2)CC1 [F.4.36] | < 100 nM
50 | O=C1NC(=O)C(c2c[nH]c3sccc23)=C1c1nc(N2CCNCC2)nc2sccc12 [G.1.18] | < 100 nM
51 | CCN1CCC(Cn2nc(C3=C(c4c[nH]c5sccc45)C(=O)NC3=O)c3ccccc32)CC1 [F.4.19] | 100 to 500 nM
52 | COc1cccc2nc(N3CCN(C)CC3)nc(C3=C(c4c[nH]c5sccc45)C(=O)NC3=O)c12 [F.4.11] | 100 to 500 nM
53 | O=C1NC(=O)C(c2c[nH]c3ccsc23)=C1c1nc(N2CCC(N3CCOCC3)CC2)nc2ccccc12 [E.2.5] | 100 to 500 nM
